{
  "source": "patent EP4001279A1",
  "about": "“NOVEL SPIROPYRROLIDINE DERIVED ANTIVIRAL AGENTS” (Enanta Pharmaceuticals, Inc., priority 2020, dated 2022)",
  "key": {"[1]": {"test_system": "229E human corona virus (hCoV)", "assay": "229E live virus assay (CPE, ATPlite readout in MRC-5 cells)", "format": "cell-based, hCoV-229E", "conditions": "MOI 0.05, ATPlite readout, run in duplicate"}, "[2]": {"target": "SARS-CoV-2 3CL-protease (Severe acute respiratory syndrome coronavirus 2, UniProt P0DTD1)", "assay": "SARS-CoV-2 3C-like (3CL) protease fluorescence assay (FRET)", "format": "biochemical", "conditions": "read-out: FRET IC50"}, "[3]": {"conditions": "Human coronavirus 229E, MRC5, hCoV-229E live virus"}},
  "data": [
    {"smiles": "C[C@H](OC(=O)N[C@@H](CC(C)(C)C)C(=O)N1C[C@]2(C[C@H]1C#N)C(=O)Nc1ccc(Cl)cc12)c1ccc(F)cc1", "note": "[Example 494]", "values": [
      {"measurement": "EC50", "setting": "[1]; [3]", "result": "100 to 1000", "unit": "nM"},
      {"measurement": "IC50", "setting": "[2]", "result": "< 100", "unit": "nM"}
    ]},
    {"smiles": "CC(C)C[C@@H](C(=O)N1C[C@]2(C[C@H]1C#N)C(=O)Nc1ccccc12)N(C)C(=O)[C@H]1CCN(C(=O)C(F)(F)F)C1", "note": "[Example 346]", "values": [
      {"measurement": "EC50", "setting": "[1]; [3]", "result": "< 100", "unit": "nM"},
      {"measurement": "IC50", "setting": "[2]", "result": "< 100", "unit": "nM"}
    ]},
    {"smiles": "CC(C)CC(C(=O)N1CC2(CC1C#N)C(=O)Nc1ccccc12)N(C)C(=O)c1nnn(-c2ccccc2)n1", "note": "(stereo not drawn) [Example 287]", "values": [
      {"measurement": "EC50", "setting": "[1]; [3]", "result": "< 100", "unit": "nM"},
      {"measurement": "IC50", "setting": "[2]", "result": "< 100", "unit": "nM"}
    ]},
    {"smiles": "CC(C)(C)OC[C@H](NC(=O)c1cc2c(F)cc(F)cc2[nH]1)C(=O)N1C[C@]2(C[C@H]1C#N)C(=O)Nc1ccccc12", "note": "[Example 125]", "values": [
      {"measurement": "EC50", "setting": "[1]; [3]", "result": "100 to 1000", "unit": "nM"},
      {"measurement": "IC50", "setting": "[2]", "result": "< 100", "unit": "nM"}
    ]},
    {"smiles": "COc1cccc2[nH]c(C(=O)N[C@@H](COC(C)(C)C)C(=O)N3C[C@]4(C[C@H]3C#N)C(=O)Nc3ccccc34)cc12", "note": "[Example 124]", "values": [
      {"measurement": "EC50", "setting": "[1]; [3]", "result": "< 100", "unit": "nM"},
      {"measurement": "IC50", "setting": "[2]", "result": "< 100", "unit": "nM"}
    ]},
    {"smiles": "COc1cc(C(=O)N(C)C(CC(C)C)C(=O)N2CC3(CC2C#N)C(=O)Nc2ccccc23)cc2cn(C3CC3)nc12", "note": "(stereo not drawn) [Example 308]", "values": [
      {"measurement": "EC50", "setting": "[1]; [3]", "result": "100 to 1000", "unit": "nM"},
      {"measurement": "IC50", "setting": "[2]", "result": "< 100", "unit": "nM"}
    ]},
    {"smiles": "CN(C(=O)[C@@H](O)C(C)(C)C)[C@@H](CC1CC1)C(=O)N1C[C@]2(C[C@H]1C#N)C(=O)Nc1ccccc12", "note": "[Example 416]", "values": [
      {"measurement": "EC50", "setting": "[1]; [3]", "result": "< 100", "unit": "nM"},
      {"measurement": "IC50", "setting": "[2]", "result": "< 100", "unit": "nM"}
    ]},
    {"smiles": "CC(C)C[C@@H](C(=O)N1C[C@]2(C[C@H]1C#N)C(=O)Nc1ccccc12)N(C)C(=O)c1ccccc1OC(F)F", "note": "[Example 176]", "values": [
      {"measurement": "EC50", "setting": "[1]; [3]", "result": "< 100", "unit": "nM"},
      {"measurement": "IC50", "setting": "[2]", "result": "< 100", "unit": "nM"}
    ]},
    {"smiles": "CC(C)CC(C(=O)N1CC2(CC1C#N)C(=O)Nc1ccccc12)N(C)C(=O)C1CCN(C(=O)C(F)(F)F)C1", "note": "(stereo not drawn) [Example 347]", "values": [
      {"measurement": "EC50", "setting": "[1]; hCoV-229E live virus", "result": "< 100", "unit": "nM"},
      {"measurement": "IC50", "setting": "[2]", "result": "< 100", "unit": "nM"}
    ]},
    {"smiles": "CC(C)(C)CC(NC(=O)c1cnn(-c2ccc(F)cc2)c1)C(=O)N1CC2(CC1C#N)C(=O)Nc1ccccc12", "note": "(stereo not drawn) [Example 146]", "values": [
      {"measurement": "EC50", "setting": "[1]; [3]", "result": "< 100", "unit": "nM"},
      {"measurement": "IC50", "setting": "[2]", "result": "< 100", "unit": "nM"}
    ]},
    {"smiles": "CC(C)C[C@@H](C(=O)N1C[C@]2(C[C@H]1C#N)C(=O)Nc1ccccc12)N(C)C(=O)[C@@H]1C[C@H]1c1ccccc1", "note": "[Example 280]", "values": [
      {"measurement": "EC50", "setting": "[1]; [3]", "result": "< 100", "unit": "nM"},
      {"measurement": "IC50", "setting": "[2]", "result": "< 100", "unit": "nM"}
    ]},
    {"smiles": "CC(C)CC(C(=O)N1CC2(CC1C#N)C(=O)Nc1ccccc12)N(C)C(=O)c1cc(OC2CC2)c2nn(C3CC3)cc2c1", "note": "(stereo not drawn) [Example 307]", "values": [
      {"measurement": "EC50", "setting": "[1]; [3]", "result": "100 to 1000", "unit": "nM"},
      {"measurement": "IC50", "setting": "[2]", "result": "100 to 1000", "unit": "nM"}
    ]}
  ]
}
